Test results taken from ChEMBL document CHEMBL1201862, “PubChem BioAssay data set” (2004).
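Each compound was tested at five concentrations against cells in 96-well plates for 48 hours. At the GI50, growth is halved.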 Active and inactive are the calls of the source. No stated cut-off is given here; in the data, active = GI50 up to about 1.1 µM and inactive = higher.

Legend:
Assay in all cases: inhibition of tumour cell growth, NCI panel, 48 h
[1] = system: A549
[2] = system: COLO 205
[3] = system: HT-29
[4] = system: HOP-92
[5] = system: NCI/ADR-RES
[6] = system: SK-MEL-5
[7] = system: KM12
[8] = system: Hs-578T
[9] = system: HCT-116
[10] = system: OVCAR-4
[11] = system: 786-0
[12] = system: MOLT-4
[13] = system: SK-MEL-28
[14] = system: K562
[15] = system: ACHN
[16] = system: M14
[17] = system: SF-268
[18] = system: HOP-62
[19] = system: PC-3

Row | SMILES | GI50 [1] | GI50 [2] | GI50 [3] | GI50 [4] | GI50 [5] | GI50 [6] | GI50 [7] | GI50 [8] | GI50 [9] | GI50 [10] | GI50 [11] | GI50 [12] | GI50 [13] | GI50 [14] | GI50 [15] | GI50 [16] | GI50 [17] | GI50 [18] | GI50 [19]
1 | Cc1ccc2c(c1C)CC1(Cc3c(C)ccc(C)c3C1=O)C2=O (stereo not given) | > 100 µM (inactive) | > 100 µM (inactive) | > 100 µM (inactive) | > 100 µM (inactive) | > 100 µM (inactive) | > 100 µM (inactive) | > 100 µM (inactive) | > 100 µM (inactive) | > 100 µM (inactive) | > 100 µM (inactive) | > 100 µM (inactive) | > 100 µM (inactive) | > 100 µM (inactive) | > 100 µM (inactive) | > 100 µM (inactive) | > 100 µM (inactive) | > 100 µM (inactive) | – | –
2 | Cc1cc(-c2cccc3ccccc23)c(C#N)c(=S)n1C1OC(CO)C(O)C(O)C1O (stereo not given) | > 100 µM (inactive) | > 100 µM (inactive) | > 100 µM (inactive) | – | > 100 µM (inactive) | 67 µM (inactive) | > 100 µM (inactive) | 86.5 µM (inactive) | > 100 µM (inactive) | 60.3 µM (inactive) | > 100 µM (inactive) | > 100 µM (inactive) | – | – | > 100 µM (inactive) | > 100 µM (inactive) | – | > 100 µM (inactive) | > 100 µM (inactive)
3 | C[n+]1ccc(/C2=C3\C=CC(=N3)/C(c3cc[n+](C)cc3)=c3/cc/c([nH]3)=C(\c3cc[n+](C)cc3)C3=N/C(=C(/c4cc[n+](C)cc4)C4C=CC2N4)C=C3)cc1 | 80.2 µM (inactive) | > 100 µM (inactive) | 51.9 µM (inactive) | > 100 µM (inactive) | > 100 µM (inactive) | 43 µM (inactive) | 35.9 µM (inactive) | > 80 µM (inactive) | > 81.1 µM (inactive) | > 70 µM (inactive) | > 100 µM (inactive) | 95.3 µM (inactive) | > 100 µM (inactive) | > 90.4 µM (inactive) | > 100 µM (inactive) | > 100 µM (inactive) | > 100 µM (inactive) | > 100 µM (inactive) | –
4 | CC1(CF)SCc2nc3ccccc3n21 (stereo not given) | > 100 µM (inactive) | > 100 µM (inactive) | > 100 µM (inactive) | > 100 µM (inactive) | > 100 µM (inactive) | > 100 µM (inactive) | > 100 µM (inactive) | > 100 µM (inactive) | > 100 µM (inactive) | – | > 100 µM (inactive) | – | > 100 µM (inactive) | – | > 100 µM (inactive) | > 100 µM (inactive) | > 100 µM (inactive) | > 100 µM (inactive) | > 100 µM (inactive)
5 | C=C1C(=O)OC2C3C(=C)[C@@H](OC(C)=O)CC3C(C)=CC(OC(=O)C(C)(OC(C)=O)C(C)OC(C)=O)[C@@H]12 (stereo not given in full) | 24.3 µM (inactive) | 14.8 µM (inactive) | 14.4 µM (inactive) | – | – | 12.6 µM (inactive) | 16.8 µM (inactive) | 23.4 µM (inactive) | 11 µM (inactive) | 13.3 µM (inactive) | 16.6 µM (inactive) | 6.56 µM (inactive) | 15.1 µM (inactive) | 7.29 µM (inactive) | 13.7 µM (inactive) | 14.6 µM (inactive) | 21.7 µM (inactive) | 37.4 µM (inactive) | 17.3 µM (inactive)
6 | CC(C#N)(NO)C(C)(C#N)NO (stereo not given) | > 100 µM (inactive) | 81.1 µM (inactive) | > 100 µM (inactive) | – | > 100 µM (inactive) | > 100 µM (inactive) | > 100 µM (inactive) | > 100 µM (inactive) | > 100 µM (inactive) | > 100 µM (inactive) | > 100 µM (inactive) | > 100 µM (inactive) | > 100 µM (inactive) | > 100 µM (inactive) | – | > 100 µM (inactive) | > 100 µM (inactive) | – | > 100 µM (inactive)
7 | Cc1c(N2C(=O)/C(=C/C=C/c3ccccc3)N=C2c2ccccc2)c(=O)n(-c2ccccc2)n1C | 25.6 µM (inactive) | 15.5 µM (inactive) | 20.3 µM (inactive) | 22.2 µM (inactive) | 21.7 µM (inactive) | 16.3 µM (inactive) | 25.5 µM (inactive) | – | 34.8 µM (inactive) | 17.8 µM (inactive) | 29.3 µM (inactive) | 14.9 µM (inactive) | – | 19 µM (inactive) | 17.8 µM (inactive) | 31.4 µM (inactive) | 22.6 µM (inactive) | 26.5 µM (inactive) | 25.6 µM (inactive)
8 | O=C(Nc1ccc([N+](=O)[O-])cc1)Nn1cnnc1 | 67.3 µM (inactive) | > 100 µM (inactive) | 26.2 µM (inactive) | > 100 µM (inactive) | – | > 100 µM (inactive) | 26.1 µM (inactive) | 26.1 µM (inactive) | 74.5 µM (inactive) | 14.3 µM (inactive) | – | > 100 µM (inactive) | > 100 µM (inactive) | > 100 µM (inactive) | > 100 µM (inactive) | > 100 µM (inactive) | 42 µM (inactive) | 66.2 µM (inactive) | 42.1 µM (inactive)
9 | Cc1ccc(S(=O)(=O)NCCN(CCNS(=O)(=O)c2ccc(C)cc2)S(=O)(=O)c2ccc(C)cc2)cc1 | 25.7 µM (inactive) | > 100 µM (inactive) | > 100 µM (inactive) | – | > 100 µM (inactive) | 43.9 µM (inactive) | > 100 µM (inactive) | 22.9 µM (inactive) | > 100 µM (inactive) | 6.53 µM (inactive) | 43.7 µM (inactive) | > 100 µM (inactive) | 43.8 µM (inactive) | > 100 µM (inactive) | 60 µM (inactive) | > 100 µM (inactive) | 47.4 µM (inactive) | 47.4 µM (inactive) | > 100 µM (inactive)
10 | O=C1CCC(=O)C(C(=O)CCC(=O)Nc2ccc(Cl)cc2)C1 (stereo not given) | > 100 µM (inactive) | > 100 µM (inactive) | > 100 µM (inactive) | > 100 µM (inactive) | – | > 100 µM (inactive) | > 100 µM (inactive) | – | > 100 µM (inactive) | > 100 µM (inactive) | > 100 µM (inactive) | > 100 µM (inactive) | – | > 100 µM (inactive) | > 100 µM (inactive) | > 100 µM (inactive) | > 100 µM (inactive) | – | –
11 | CCN(CC)C(=S)SS(=O)(=O)c1ccc(C)cc1 | – | 22.3 µM (inactive) | 13.2 µM (inactive) | – | 35.6 µM (inactive) | 0.644 µM (active) | 14.2 µM (inactive) | 75.5 µM (inactive) | – | 43.2 µM (inactive) | 20.3 µM (inactive) | – | 18.5 µM (inactive) | 28.5 µM (inactive) | 34.7 µM (inactive) | 13.9 µM (inactive) | 55.2 µM (inactive) | 23.2 µM (inactive) | –
12 | CCOC(=O)c1sc2nc(SC)nc(Nc3ccc4c(c3)OCCO4)c2c1N | 10 µM (inactive) | 5.45 µM (inactive) | 21 µM (inactive) | 13.1 µM (inactive) | 21.6 µM (inactive) | 7.53 µM (inactive) | 44.6 µM (inactive) | – | 6.3 µM (inactive) | 10.7 µM (inactive) | – | 8.05 µM (inactive) | > 100 µM (inactive) | 20.6 µM (inactive) | 7.28 µM (inactive) | 11 µM (inactive) | 4.69 µM (inactive) | 11.8 µM (inactive) | 13.2 µM (inactive)
13 | O=C(O)c1ccc(NC(NC(=O)C(C(F)(F)F)C(F)(F)F)(C(F)(F)F)C(F)(F)F)cc1 | > 100 µM (inactive) | > 100 µM (inactive) | > 100 µM (inactive) | – | > 100 µM (inactive) | > 100 µM (inactive) | – | > 100 µM (inactive) | > 100 µM (inactive) | – | > 100 µM (inactive) | > 100 µM (inactive) | > 100 µM (inactive) | > 100 µM (inactive) | > 100 µM (inactive) | > 100 µM (inactive) | > 100 µM (inactive) | – | > 100 µM (inactive)
14 | Fc1ccc(-c2sc(-c3ccsc3)cc2Cc2ccsc2)cc1 | > 10 µM (inactive) | > 10 µM (inactive) | > 10 µM (inactive) | > 10 µM (inactive) | – | > 10 µM (inactive) | > 10 µM (inactive) | – | – | > 10 µM (inactive) | > 10 µM (inactive) | > 10 µM (inactive) | > 10 µM (inactive) | > 10 µM (inactive) | – | > 10 µM (inactive) | > 10 µM (inactive) | > 10 µM (inactive) | > 10 µM (inactive)
15 | CC(=O)C(=[N+]=[N-])C(=O)N1CCOC1=O | > 10 µM (inactive) | > 10 µM (inactive) | > 10 µM (inactive) | – | > 10 µM (inactive) | > 10 µM (inactive) | > 10 µM (inactive) | > 10 µM (inactive) | > 10 µM (inactive) | > 10 µM (inactive) | > 10 µM (inactive) | > 10 µM (inactive) | > 10 µM (inactive) | > 10 µM (inactive) | > 10 µM (inactive) | > 10 µM (inactive) | > 10 µM (inactive) | > 10 µM (inactive) | > 10 µM (inactive)
16 | CC(=O)Nc1ncc2c(n1)-c1ccccc1OC2c1ccccc1 (stereo not given) | > 100 µM (inactive) | > 100 µM (inactive) | > 100 µM (inactive) | 14.8 µM (inactive) | 32.8 µM (inactive) | > 100 µM (inactive) | > 100 µM (inactive) | 6.89 µM (inactive) | 80.9 µM (inactive) | 18.5 µM (inactive) | 12.4 µM (inactive) | > 100 µM (inactive) | – | – | 11 µM (inactive) | > 100 µM (inactive) | 15.4 µM (inactive) | – | > 100 µM (inactive)
